Data as given in ChEMBL document CHEMBL4507276 (2021).

Tests used:
[1] = biological target: Proto-oncogene tyrosine-protein kinase receptor Ret (Homo sapiens) (UniProt P07949); settings: Compound concentration 1000.0 nM
[2] = biological target: Tyrosine-protein kinase FRK (Homo sapiens) (UniProt P42685); settings: Compound concentration 1000.0 nM
[3] = biological target: Serine/threonine-protein kinase OSR1 (Homo sapiens) (UniProt O95747); settings: Compound concentration 1000.0 nM
[4] = biological target: Activated CDC42 kinase 1 (Homo sapiens) (UniProt Q07912); settings: Compound concentration 1000.0 nM
[5] = biological target: Mitogen-activated protein kinase 6 (Homo sapiens) (UniProt Q16659); settings: Compound concentration 1000.0 nM
Sequence of Mitogen-activated protein kinase 6 (Homo sapiens) (Q16659 whole entry): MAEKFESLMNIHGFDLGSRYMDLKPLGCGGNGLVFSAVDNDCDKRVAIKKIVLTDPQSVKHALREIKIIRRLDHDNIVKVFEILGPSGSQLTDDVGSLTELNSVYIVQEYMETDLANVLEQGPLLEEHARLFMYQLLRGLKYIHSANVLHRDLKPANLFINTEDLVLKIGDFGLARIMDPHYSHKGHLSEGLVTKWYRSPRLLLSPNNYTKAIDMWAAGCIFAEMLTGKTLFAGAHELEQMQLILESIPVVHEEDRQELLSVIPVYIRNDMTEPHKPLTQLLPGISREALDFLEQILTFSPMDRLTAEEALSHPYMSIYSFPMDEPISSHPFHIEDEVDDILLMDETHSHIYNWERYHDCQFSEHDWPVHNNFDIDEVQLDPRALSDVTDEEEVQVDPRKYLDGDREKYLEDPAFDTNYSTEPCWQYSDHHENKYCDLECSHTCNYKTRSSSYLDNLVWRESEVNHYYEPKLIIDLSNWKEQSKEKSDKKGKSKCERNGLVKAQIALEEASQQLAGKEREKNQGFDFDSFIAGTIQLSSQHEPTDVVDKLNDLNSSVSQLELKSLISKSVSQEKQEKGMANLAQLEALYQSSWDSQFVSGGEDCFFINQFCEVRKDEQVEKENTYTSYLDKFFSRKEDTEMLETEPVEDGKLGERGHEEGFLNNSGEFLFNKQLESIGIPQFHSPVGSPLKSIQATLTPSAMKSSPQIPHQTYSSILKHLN

[6] = tested on: Mast/stem cell growth factor receptor Kit (Homo sapiens), P10721 [V559D,V654A]; settings: Compound concentration 1000.0 nM
Sequence of Mast/stem cell growth factor receptor Kit (Homo sapiens), P10721 [V559D,V654A] (P10721 whole entry V559D/V654A): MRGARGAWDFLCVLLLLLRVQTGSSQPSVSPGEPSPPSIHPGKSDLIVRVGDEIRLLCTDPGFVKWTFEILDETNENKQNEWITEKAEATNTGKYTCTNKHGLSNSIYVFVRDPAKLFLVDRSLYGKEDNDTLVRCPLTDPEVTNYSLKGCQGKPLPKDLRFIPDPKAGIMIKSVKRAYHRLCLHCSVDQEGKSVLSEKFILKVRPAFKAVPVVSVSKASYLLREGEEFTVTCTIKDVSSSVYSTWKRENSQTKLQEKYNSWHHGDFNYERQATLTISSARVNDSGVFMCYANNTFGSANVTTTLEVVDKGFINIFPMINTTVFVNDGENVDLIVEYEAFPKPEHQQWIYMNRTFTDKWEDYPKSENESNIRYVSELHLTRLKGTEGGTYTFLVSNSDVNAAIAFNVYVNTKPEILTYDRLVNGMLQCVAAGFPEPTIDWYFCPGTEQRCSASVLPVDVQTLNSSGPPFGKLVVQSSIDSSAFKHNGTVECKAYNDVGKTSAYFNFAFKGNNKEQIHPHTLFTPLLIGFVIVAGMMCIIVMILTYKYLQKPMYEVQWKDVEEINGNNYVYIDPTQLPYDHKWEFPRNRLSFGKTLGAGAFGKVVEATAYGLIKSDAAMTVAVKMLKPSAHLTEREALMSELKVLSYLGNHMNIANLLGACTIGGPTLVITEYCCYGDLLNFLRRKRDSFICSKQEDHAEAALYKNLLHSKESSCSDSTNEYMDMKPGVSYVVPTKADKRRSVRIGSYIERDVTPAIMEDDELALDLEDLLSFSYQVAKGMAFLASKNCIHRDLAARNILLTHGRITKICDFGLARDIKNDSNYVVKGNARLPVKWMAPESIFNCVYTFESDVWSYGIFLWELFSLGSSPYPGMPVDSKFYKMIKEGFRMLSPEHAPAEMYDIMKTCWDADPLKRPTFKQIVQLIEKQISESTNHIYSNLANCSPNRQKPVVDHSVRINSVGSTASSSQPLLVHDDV

[7] = biological target: Non-receptor tyrosine-protein kinase TYK2 (Homo sapiens) (UniProt P29597); settings: Compound concentration 1000.0 nM
[8] = biological target: T1, MAP kinase-activated protein kinase 5 (Homo sapiens) (UniProt Q8IW41); settings: Compound concentration 1000.0 nM
T1 sequence (whole entry): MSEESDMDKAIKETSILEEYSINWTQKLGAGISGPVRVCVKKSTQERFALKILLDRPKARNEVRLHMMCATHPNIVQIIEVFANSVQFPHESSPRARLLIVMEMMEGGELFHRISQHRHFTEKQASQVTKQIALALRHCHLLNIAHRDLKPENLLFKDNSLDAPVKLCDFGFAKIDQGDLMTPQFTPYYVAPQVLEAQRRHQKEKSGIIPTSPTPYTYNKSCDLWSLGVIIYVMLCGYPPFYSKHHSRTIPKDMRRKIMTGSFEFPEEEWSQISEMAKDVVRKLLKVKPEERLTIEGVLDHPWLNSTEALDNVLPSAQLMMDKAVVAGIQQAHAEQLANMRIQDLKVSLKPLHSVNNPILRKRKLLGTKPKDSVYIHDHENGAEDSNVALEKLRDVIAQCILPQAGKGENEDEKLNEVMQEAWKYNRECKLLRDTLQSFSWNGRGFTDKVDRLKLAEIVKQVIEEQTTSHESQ

[9] = biological target: Cyclin-dependent kinase-like 3 (Homo sapiens) (UniProt Q8IVW4); settings: Compound concentration 1000.0 nM
Sequence of Cyclin-dependent kinase-like 3 (Homo sapiens) (Q8IVW4 whole entry, looked up, the tested form may be a part): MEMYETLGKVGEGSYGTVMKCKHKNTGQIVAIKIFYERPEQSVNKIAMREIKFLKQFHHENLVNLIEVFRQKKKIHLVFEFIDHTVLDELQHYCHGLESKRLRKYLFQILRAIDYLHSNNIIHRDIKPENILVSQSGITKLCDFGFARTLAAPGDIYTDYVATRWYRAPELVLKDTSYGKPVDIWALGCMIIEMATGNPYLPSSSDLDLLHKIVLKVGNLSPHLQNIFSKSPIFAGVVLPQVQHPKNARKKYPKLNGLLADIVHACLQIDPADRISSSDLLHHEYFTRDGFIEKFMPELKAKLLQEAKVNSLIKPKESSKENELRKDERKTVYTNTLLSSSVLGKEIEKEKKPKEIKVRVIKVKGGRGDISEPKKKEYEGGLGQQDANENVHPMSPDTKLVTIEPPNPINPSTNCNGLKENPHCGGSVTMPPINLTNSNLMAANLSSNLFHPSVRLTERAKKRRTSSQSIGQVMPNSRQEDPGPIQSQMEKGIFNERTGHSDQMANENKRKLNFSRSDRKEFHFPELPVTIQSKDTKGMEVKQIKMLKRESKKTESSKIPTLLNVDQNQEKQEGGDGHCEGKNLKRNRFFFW

[10] = biological target: Phosphatidylinositol 4-phosphate 3-kinase C2 domain-containing subunit beta (Homo sapiens) (UniProt O00750); settings: Compound concentration 1000.0 nM
[11] = biological target: T2, 5-hydroxytryptamine receptor 3A (Homo sapiens) (UniProt P46098); settings: Compound concentration 10.0 uM
T2 sequence (whole entry): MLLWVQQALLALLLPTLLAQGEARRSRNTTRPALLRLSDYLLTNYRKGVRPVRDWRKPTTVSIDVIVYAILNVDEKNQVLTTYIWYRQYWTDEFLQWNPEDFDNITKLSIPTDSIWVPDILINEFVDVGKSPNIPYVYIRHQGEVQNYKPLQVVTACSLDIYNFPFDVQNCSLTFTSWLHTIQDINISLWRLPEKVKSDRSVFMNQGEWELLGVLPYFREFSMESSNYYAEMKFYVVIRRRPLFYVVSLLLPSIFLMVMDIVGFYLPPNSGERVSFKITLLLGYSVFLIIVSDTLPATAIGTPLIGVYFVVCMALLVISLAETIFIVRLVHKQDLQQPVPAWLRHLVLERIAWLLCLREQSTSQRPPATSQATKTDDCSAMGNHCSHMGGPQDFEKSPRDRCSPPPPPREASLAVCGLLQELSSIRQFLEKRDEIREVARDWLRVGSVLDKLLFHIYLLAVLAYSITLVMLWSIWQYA

[12] = tested on: Serine/threonine-protein kinase B-raf (Homo sapiens), P15056 [V600E]; settings: Compound concentration 1000.0 nM
[13] = biological target: T3, Ephrin type-A receptor 1 (Homo sapiens) (UniProt P21709); settings: Compound concentration 1000.0 nM
T3 sequence (whole entry): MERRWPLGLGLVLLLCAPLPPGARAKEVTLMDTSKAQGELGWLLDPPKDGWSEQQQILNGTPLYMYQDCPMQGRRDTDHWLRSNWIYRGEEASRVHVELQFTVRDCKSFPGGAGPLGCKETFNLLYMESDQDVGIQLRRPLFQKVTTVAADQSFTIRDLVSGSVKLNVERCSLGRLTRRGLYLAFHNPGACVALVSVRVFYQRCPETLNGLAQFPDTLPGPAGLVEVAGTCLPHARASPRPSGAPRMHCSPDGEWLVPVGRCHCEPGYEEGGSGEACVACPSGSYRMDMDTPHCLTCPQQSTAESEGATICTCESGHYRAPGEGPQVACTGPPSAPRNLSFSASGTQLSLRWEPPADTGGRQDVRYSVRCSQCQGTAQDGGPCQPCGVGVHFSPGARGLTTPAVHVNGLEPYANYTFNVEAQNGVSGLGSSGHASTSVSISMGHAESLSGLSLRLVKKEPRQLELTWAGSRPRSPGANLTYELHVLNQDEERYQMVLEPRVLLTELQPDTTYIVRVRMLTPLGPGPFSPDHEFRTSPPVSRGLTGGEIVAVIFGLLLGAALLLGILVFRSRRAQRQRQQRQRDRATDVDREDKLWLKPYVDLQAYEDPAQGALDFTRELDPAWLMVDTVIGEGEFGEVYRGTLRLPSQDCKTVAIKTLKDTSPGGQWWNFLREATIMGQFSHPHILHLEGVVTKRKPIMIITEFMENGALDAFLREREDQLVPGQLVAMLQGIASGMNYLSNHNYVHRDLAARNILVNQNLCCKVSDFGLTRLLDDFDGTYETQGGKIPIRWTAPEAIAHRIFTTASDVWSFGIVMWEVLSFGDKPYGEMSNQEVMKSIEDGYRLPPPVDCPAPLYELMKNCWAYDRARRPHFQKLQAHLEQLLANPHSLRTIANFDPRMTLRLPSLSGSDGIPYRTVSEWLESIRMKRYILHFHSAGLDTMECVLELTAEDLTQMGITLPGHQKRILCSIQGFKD

[14] = biological target: D(3) dopamine receptor (Homo sapiens) (UniProt P35462); settings: Compound concentration 10.0 uM
[15] = biological target: Serine/threonine-protein kinase RIO2 (Homo sapiens) (UniProt Q9BVS4); settings: Compound concentration 1000.0 nM
[16] = biological target: ALK tyrosine kinase receptor (Homo sapiens) (UniProt Q9UM73); settings: Compound concentration 1000.0 nM
Sequence of ALK tyrosine kinase receptor (Homo sapiens) (Q9UM73 19-1620 limits assumed): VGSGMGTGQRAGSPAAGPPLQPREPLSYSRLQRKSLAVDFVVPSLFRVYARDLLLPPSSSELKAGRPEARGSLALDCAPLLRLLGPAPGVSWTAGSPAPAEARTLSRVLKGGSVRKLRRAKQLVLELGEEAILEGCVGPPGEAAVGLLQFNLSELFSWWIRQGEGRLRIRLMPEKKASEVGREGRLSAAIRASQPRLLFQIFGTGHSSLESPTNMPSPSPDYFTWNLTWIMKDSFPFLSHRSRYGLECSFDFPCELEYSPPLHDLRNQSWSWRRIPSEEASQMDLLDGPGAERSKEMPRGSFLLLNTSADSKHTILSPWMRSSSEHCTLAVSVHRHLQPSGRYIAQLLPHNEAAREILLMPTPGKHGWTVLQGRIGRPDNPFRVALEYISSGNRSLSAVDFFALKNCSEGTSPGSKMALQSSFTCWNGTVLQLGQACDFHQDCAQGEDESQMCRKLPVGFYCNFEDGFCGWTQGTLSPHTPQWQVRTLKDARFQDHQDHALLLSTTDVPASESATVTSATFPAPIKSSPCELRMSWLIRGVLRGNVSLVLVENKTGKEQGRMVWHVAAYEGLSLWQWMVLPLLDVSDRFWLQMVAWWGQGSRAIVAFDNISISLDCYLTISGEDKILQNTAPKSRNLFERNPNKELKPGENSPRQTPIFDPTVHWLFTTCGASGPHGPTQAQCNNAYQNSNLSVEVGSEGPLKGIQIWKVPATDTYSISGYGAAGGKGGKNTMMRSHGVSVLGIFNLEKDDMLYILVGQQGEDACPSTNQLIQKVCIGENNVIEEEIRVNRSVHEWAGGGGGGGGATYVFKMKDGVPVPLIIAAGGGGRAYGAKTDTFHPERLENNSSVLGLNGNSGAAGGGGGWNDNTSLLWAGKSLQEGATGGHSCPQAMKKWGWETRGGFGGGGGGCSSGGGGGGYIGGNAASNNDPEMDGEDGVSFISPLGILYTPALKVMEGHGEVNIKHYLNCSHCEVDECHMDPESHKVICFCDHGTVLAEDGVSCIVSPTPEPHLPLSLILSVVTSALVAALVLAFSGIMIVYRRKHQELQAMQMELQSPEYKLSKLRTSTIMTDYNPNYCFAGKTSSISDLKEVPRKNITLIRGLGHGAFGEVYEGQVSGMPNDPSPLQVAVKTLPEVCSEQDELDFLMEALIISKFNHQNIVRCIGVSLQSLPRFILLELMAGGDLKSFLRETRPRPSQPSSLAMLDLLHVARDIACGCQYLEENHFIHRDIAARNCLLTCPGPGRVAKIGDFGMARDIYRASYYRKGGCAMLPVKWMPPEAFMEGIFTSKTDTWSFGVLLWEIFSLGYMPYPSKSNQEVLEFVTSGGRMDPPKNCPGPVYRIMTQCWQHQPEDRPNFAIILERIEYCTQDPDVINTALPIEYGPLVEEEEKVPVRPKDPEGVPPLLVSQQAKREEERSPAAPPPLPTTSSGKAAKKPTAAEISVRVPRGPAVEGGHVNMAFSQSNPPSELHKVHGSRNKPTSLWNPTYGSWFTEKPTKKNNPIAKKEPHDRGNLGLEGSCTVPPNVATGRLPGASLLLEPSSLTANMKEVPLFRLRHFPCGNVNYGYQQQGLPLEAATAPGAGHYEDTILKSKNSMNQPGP

[17] = biological target: TRAF2 and NCK-interacting protein kinase (Homo sapiens) (UniProt Q9UKE5); settings: Compound concentration 1000.0 nM
[18] = biological target: 3-phosphoinositide-dependent protein kinase 1 (Homo sapiens) (UniProt O15530); settings: Compound concentration 1000.0 nM
Sequence of 3-phosphoinositide-dependent protein kinase 1 (Homo sapiens) (O15530 whole entry, canonical isoform): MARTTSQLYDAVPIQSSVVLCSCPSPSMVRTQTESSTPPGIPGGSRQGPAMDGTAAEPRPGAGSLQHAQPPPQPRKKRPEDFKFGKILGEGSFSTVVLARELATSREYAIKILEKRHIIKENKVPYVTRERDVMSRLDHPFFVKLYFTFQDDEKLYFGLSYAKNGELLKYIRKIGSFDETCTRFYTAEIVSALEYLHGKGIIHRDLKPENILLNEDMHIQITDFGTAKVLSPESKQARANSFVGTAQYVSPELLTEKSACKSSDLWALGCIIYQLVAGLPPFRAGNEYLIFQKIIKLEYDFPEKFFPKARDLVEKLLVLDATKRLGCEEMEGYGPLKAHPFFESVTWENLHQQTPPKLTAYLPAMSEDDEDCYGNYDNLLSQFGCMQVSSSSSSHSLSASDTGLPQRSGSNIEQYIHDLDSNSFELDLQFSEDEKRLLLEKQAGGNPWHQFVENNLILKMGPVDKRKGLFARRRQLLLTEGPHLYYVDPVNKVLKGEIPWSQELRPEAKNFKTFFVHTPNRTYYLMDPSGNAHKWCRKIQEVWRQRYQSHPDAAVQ

[19] = biological target: Phosphatidylinositol 4,5-bisphosphate 3-kinase catalytic subunit gamma isoform (Homo sapiens) (UniProt P48736); settings: Compound concentration 1000.0 nM

Sequence of Serine/threonine-protein kinase OSR1 (Homo sapiens) (O95747 2-527 limits assumed): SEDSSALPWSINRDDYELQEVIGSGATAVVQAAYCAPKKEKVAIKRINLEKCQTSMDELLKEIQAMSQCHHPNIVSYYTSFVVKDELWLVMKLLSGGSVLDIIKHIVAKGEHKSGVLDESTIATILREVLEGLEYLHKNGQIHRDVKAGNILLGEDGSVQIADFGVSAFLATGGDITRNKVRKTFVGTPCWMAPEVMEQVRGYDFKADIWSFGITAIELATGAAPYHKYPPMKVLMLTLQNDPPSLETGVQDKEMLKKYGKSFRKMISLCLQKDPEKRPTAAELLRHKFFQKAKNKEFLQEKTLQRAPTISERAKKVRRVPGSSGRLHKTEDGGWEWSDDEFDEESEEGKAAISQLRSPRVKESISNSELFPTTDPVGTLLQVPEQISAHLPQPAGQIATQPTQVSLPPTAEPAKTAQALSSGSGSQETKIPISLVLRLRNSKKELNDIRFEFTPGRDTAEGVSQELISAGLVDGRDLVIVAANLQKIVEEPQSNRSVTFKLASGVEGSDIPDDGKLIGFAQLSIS

CN(C)C(=O)Cn1cc(-c2nc(C3(c4ccc(-c5cnc(N)nc5)cc4)CC3)no2)cn1 [BI 0153]
inactive: residual activity [1] 94% | residual activity [2] 100% | residual activity [3] 82% | residual activity [4] 96% | residual activity [5] 91% | residual activity [6] 100% | residual activity [7] 100% | residual activity [8] 92% | residual activity [9] 80% | residual activity [10] 100% | inhibition [11] -8.52% | residual activity [12] 87% | residual activity [13] 100% | inhibition [14] -2.44% | residual activity [15] 76% | residual activity [16] 77% | residual activity [17] 100% | residual activity [18] 82% | residual activity [19] 85%

CN(C)C(=O)Cn1cc(-c2nc([C@@](C)(c3ccc(-c4cnc(N)nc4)cc3)C3CC3)no2)cn1 [BI 665915]
inactive: residual activity [1] 94% | residual activity [2] 90% | residual activity [3] 86% | residual activity [4] 91% | residual activity [5] 91% | residual activity [6] 93% | residual activity [7] 75% | residual activity [8] 94% | residual activity [9] 94% | residual activity [10] 96% | inhibition [11] -2.76% | residual activity [12] 89% | residual activity [13] 97% | inhibition [14] -5.97% | residual activity [15] 87% | residual activity [16] 85% | residual activity [17] 100% | residual activity [18] 99% | residual activity [19] 72%
